Data taken from PubChem BioAssay (NCI).
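In this assay, cells in 96-well plates receive the compound at five concentrations for 48 hours. Endpoints are linearly interpolated between the surrounding concentrations. GI50 marks 50% less growth. TGI: total growth inhibition.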

Experiments:
Assay in all cases: growth of human tumour cells (NCI), 48 h
HT29 colon = test system: HT29 colon
SW-620 colon = test system: SW-620 colon
HCT-116 colon = test system: HCT-116 colon
DU-145 prostate = test system: DU-145 prostate
OVCAR-5 ovarian = test system: OVCAR-5 ovarian
SNB-19 CNS = test system: SNB-19 CNS
UO-31 renal = test system: UO-31 renal
TK-10 renal = test system: TK-10 renal
SNB-75 CNS = test system: SNB-75 CNS
OVCAR-3 ovarian = test system: OVCAR-3 ovarian
CCRF-CEM leukemia = test system: CCRF-CEM leukemia
UACC-257 melanoma = test system: UACC-257 melanoma
SF-539 CNS = test system: SF-539 CNS
MDA-MB-435 = test system: MDA-MB-435
NCI-H522 lung = test system: NCI-H522 lung
SK-MEL-28 melanoma = test system: SK-MEL-28 melanoma
A498 renal = test system: A498 renal
M14 melanoma = test system: M14 melanoma
SF-268 CNS = test system: SF-268 CNS
LOX IMVI melanoma = test system: LOX IMVI melanoma
NCI-H226 lung = test system: NCI-H226 lung
PC-3 prostate = test system: PC-3 prostate
SF-295 CNS = test system: SF-295 CNS
MCF7 breast = test system: MCF7 breast
KM12 colon = test system: KM12 colon
HOP-92 NSCLC = test system: HOP-92 NSCLC
K-562 leukemia = test system: K-562 leukemia
A549 NSCLC = test system: A549 NSCLC
HS 578T breast = test system: HS 578T breast
SK-MEL-5 melanoma = test system: SK-MEL-5 melanoma
MALME-3M melanoma = test system: MALME-3M melanoma
UACC-62 melanoma = test system: UACC-62 melanoma
HCC-2998 colon = test system: HCC-2998 colon
SR leukemia = test system: SR leukemia
MOLT-4 leukemia = test system: MOLT-4 leukemia
IGROV1 ovarian = test system: IGROV1 ovarian
ACHN renal = test system: ACHN renal
EKVX NSCLC = test system: EKVX NSCLC
SK-OV-3 ovarian = test system: SK-OV-3 ovarian
NCI/ADR-RES ovarian = test system: NCI/ADR-RES ovarian
HL-60(TB) leukemia = test system: HL-60(TB) leukemia
BT-549 breast = test system: BT-549 breast
CAKI-1 renal = test system: CAKI-1 renal
SK-MEL-2 melanoma = test system: SK-MEL-2 melanoma
MDA-MB-231 breast = test system: MDA-MB-231 breast
COLO 205 colon = test system: COLO 205 colon
RXF 393 renal = test system: RXF 393 renal
T-47D breast = test system: T-47D breast
RPMI-8226 leukemia = test system: RPMI-8226 leukemia
U251 CNS = test system: U251 CNS
SN12C renal = test system: SN12C renal
OVCAR-8 ovarian = test system: OVCAR-8 ovarian
786-0 renal = test system: 786-0 renal
OVCAR-4 ovarian = test system: OVCAR-4 ovarian
HCT-15 colon = test system: HCT-15 colon
NCI-H460 lung = test system: NCI-H460 lung
MDA-MB-468 breast = test system: MDA-MB-468 breast
HOP-62 NSCLC = test system: HOP-62 NSCLC
NCI-H23 lung = test system: NCI-H23 lung

O=C(Cn1c(-c2ccccc2)nc2ccccc21)N=Nc1c(O)[nH]c2ccc(Cl)cc12
GI50 (HT29 colon): 14.7 µM
TGI (HT29 colon): 30.7 µM
GI50 (SW-620 colon): 15.5 µM
TGI (SW-620 colon): 37.7 µM
GI50 (HCT-116 colon): 10 µM
TGI (HCT-116 colon): 29.3 µM
GI50 (DU-145 prostate): 18.4 µM
TGI (DU-145 prostate): 40.2 µM
GI50 (OVCAR-5 ovarian): 18.8 µM
TGI (OVCAR-5 ovarian): 48 µM
GI50 (SNB-19 CNS): 16.7 µM
TGI (SNB-19 CNS): 33.7 µM
GI50 (UO-31 renal): 11.4 µM
TGI (UO-31 renal): 24.1 µM
GI50 (TK-10 renal): 17.5 µM
TGI (TK-10 renal): 35.6 µM
GI50 (SNB-75 CNS): 10.3 µM
TGI (SNB-75 CNS): 23.6 µM
GI50 (OVCAR-3 ovarian): 16.1 µM
TGI (OVCAR-3 ovarian): 37.2 µM
GI50 (CCRF-CEM leukemia): 20 µM
TGI (CCRF-CEM leukemia): > 100 µM
GI50 (UACC-257 melanoma): 14.1 µM
TGI (UACC-257 melanoma): 28.6 µM
GI50 (SF-539 CNS): 14.7 µM
TGI (SF-539 CNS): 30.5 µM
GI50 (MDA-MB-435): 9.18 µM
TGI (MDA-MB-435): 26 µM
GI50 (NCI-H522 lung): 10.3 µM
TGI (NCI-H522 lung): 25.1 µM
GI50 (SK-MEL-28 melanoma): 14.4 µM
TGI (SK-MEL-28 melanoma): 30.2 µM
GI50 (A498 renal): 13.6 µM
TGI (A498 renal): 27.3 µM
GI50 (M14 melanoma): 17.7 µM
TGI (M14 melanoma): 40.4 µM
GI50 (SF-268 CNS): 16.1 µM
TGI (SF-268 CNS): 47.9 µM
GI50 (LOX IMVI melanoma): 14.5 µM
TGI (LOX IMVI melanoma): 28.6 µM
GI50 (NCI-H226 lung): 12.1 µM
TGI (NCI-H226 lung): 30.2 µM
GI50 (PC-3 prostate): 12.7 µM
TGI (PC-3 prostate): 33.8 µM
GI50 (SF-295 CNS): 12.3 µM
TGI (SF-295 CNS): 26.1 µM
GI50 (MCF7 breast): 10.9 µM
TGI (MCF7 breast): 25.2 µM
GI50 (KM12 colon): 19.2 µM
TGI (KM12 colon): 62.2 µM
GI50 (HOP-92 NSCLC): 13.6 µM
TGI (HOP-92 NSCLC): 31.4 µM
GI50 (K-562 leukemia): 6.91 µM
TGI (K-562 leukemia): > 100 µM
GI50 (A549 NSCLC): 13.6 µM
TGI (A549 NSCLC): 30.8 µM
GI50 (HS 578T breast): 16.5 µM
TGI (HS 578T breast): 49.6 µM
GI50 (SK-MEL-5 melanoma): 14.6 µM
TGI (SK-MEL-5 melanoma): 31.3 µM
GI50 (MALME-3M melanoma): 12.2 µM
TGI (MALME-3M melanoma): 25.5 µM
GI50 (UACC-62 melanoma): 12.4 µM
TGI (UACC-62 melanoma): 25.5 µM
GI50 (HCC-2998 colon): 13.4 µM
TGI (HCC-2998 colon): 27.5 µM
GI50 (SR leukemia): 8.56 µM
TGI (SR leukemia): > 100 µM
GI50 (MOLT-4 leukemia): 6.41 µM
TGI (MOLT-4 leukemia): > 100 µM
GI50 (IGROV1 ovarian): 14.4 µM
TGI (IGROV1 ovarian): 29.9 µM
GI50 (ACHN renal): 16 µM
TGI (ACHN renal): 34 µM
GI50 (EKVX NSCLC): 11 µM
TGI (EKVX NSCLC): 25.6 µM
GI50 (SK-OV-3 ovarian): 19.3 µM
TGI (SK-OV-3 ovarian): 38.2 µM
GI50 (NCI/ADR-RES ovarian): 12.8 µM
TGI (NCI/ADR-RES ovarian): 29.7 µM
GI50 (HL-60(TB) leukemia): 24 µM
TGI (HL-60(TB) leukemia): > 100 µM
GI50 (BT-549 breast): 16.7 µM
TGI (BT-549 breast): 35.7 µM
GI50 (CAKI-1 renal): 13.5 µM
TGI (CAKI-1 renal): 27 µM
GI50 (SK-MEL-2 melanoma): 17.4 µM
TGI (SK-MEL-2 melanoma): 36.5 µM
GI50 (MDA-MB-231 breast): 11.9 µM
TGI (MDA-MB-231 breast): 24.9 µM
GI50 (COLO 205 colon): 21 µM
TGI (COLO 205 colon): 47.9 µM
GI50 (RXF 393 renal): 4.99 µM
TGI (RXF 393 renal): 18.6 µM
GI50 (T-47D breast): 11.6 µM
TGI (T-47D breast): 30 µM
GI50 (RPMI-8226 leukemia): 20.5 µM
TGI (RPMI-8226 leukemia): > 100 µM
GI50 (U251 CNS): 16.9 µM
TGI (U251 CNS): 33.4 µM
GI50 (SN12C renal): 15.5 µM
TGI (SN12C renal): 31.1 µM
GI50 (OVCAR-8 ovarian): 16.1 µM
TGI (OVCAR-8 ovarian): 34.5 µM
GI50 (786-0 renal): 17.9 µM
TGI (786-0 renal): 39 µM
GI50 (OVCAR-4 ovarian): 15.3 µM
TGI (OVCAR-4 ovarian): 34.2 µM
GI50 (HCT-15 colon): 9.6 µM
TGI (HCT-15 colon): 24 µM
GI50 (NCI-H460 lung): 15.4 µM
TGI (NCI-H460 lung): 33 µM
GI50 (MDA-MB-468 breast): 5.77 µM
TGI (MDA-MB-468 breast): 18.9 µM
GI50 (HOP-62 NSCLC): 17.2 µM
TGI (HOP-62 NSCLC): 37.7 µM
GI50 (NCI-H23 lung): 13.7 µM
TGI (NCI-H23 lung): 28.2 µM
